What all share (format): in vivo, DBA/1J mice
Assay [1] relates to collagen induced arthritis (CIA) animal model. Kind of assay: Average arthritis score in collagen induced arthritis (CIA) animals. The note with it: CIA mice; rebamipide 0.6 mg/kg or 6 mg/kg orally, every other day, ten times; evaluated second to tenth week; FIG. 1.
The subject of assay [2] is CII-specific immunoglobulin (total IgG). The experiment in a line: Serologic test (ELISA) measuring collagen-specific antibody in serum of CIA animals. The note with it: CIA mice, rebamipide orally, serum diluted 1:8000, FIG. 3. For orientation: ELISA stands for enzyme-linked immunosorbent assay.
Assay [3] relates to collagen induced arthritis (CIA) animal model. The experiment in a line: Histological test of joints and cartilage in CIA animals. The note with it: CIA mice, FIG. 2.

Entries after “also recorded” stand apart in the source; their conditions may differ.

In the case of `O=C(NC(Cc1cc(=O)[nH]c2ccccc12)C(=O)O)c1ccc(Cl)cc1` (stereo not shown) [rebamipide], the arthritis score entry in assay [1] is reported as “dose-dependently decreased; also recorded: gradually decreased”. In assay [2], the “level of Type II collagen-specific immunoglobulin (total IgG) in serum” value is “significantly decreased”. Also, the “degree of joint and cartilage destruction” value in assay [3] (rebamipide 0.6 mg/kg or 6 mg/kg orally, sacrificed after 10 weeks, hematoxylin and eosin, toluidine blue, safranin O) is recorded as “remarkably reduced”. In addition, the “degree of cartilage destruction” value in assay [3] (rebamipide orally, histological assay) is reported as “improved, being similar to that of a normal mouse”.

(Values after patent US8691842B2, “Pharmaceutical composition for preventing or treating rheumatoid arthritis, containing rebamipide” (Catholic University Industry Academic Cooperation Foundation, priority 2009, dated 2014).)
